{"source": "patent US20200138081A1", "about": "“Biologically active food additive for preventing and treating acute respiratory diseases and flu” (Parapharm LLC, priority 2013, published 2020)", "format_in_all_cases": "in vivo, human", "key": {"[1]": {"tested_on": "IgM", "test": "Example 6 ADBH, 25(OH)D and combination, IgM (immunoturbidimetric)", "excerpt": "(§1) The object was to study the effect of active metabolites of vitamin D, as exemplified by 25 (OH)D, on the immune status in participants, judging by the level of immunoglobulines IgG, IgA, and IgM. 32 participants in the age range between 38 and 62 (23 females and 9 males) residing in Penza had no acute diseases and were apparently healthy. The immune status was examined before the therapy started and 30 days after that. […] Immunoglobulines were detected by an immunoturbidimetric method, using an assay kit of DiaSys Diagnostic Systems (Germany).\n(§2) Table 3 presents mean values (M±m) of specific antibody response for main immunoglobulin classes IgG, IgA, and IgM."}, "[2]": {"tested_on": "IgG", "test": "Example 6 ADBH, 25(OH)D and combination, IgG (immunoturbidimetric)", "excerpt": "as §1, §2"}, "[3]": {"tested_on": "IgG", "test": "Example 5 comparative effect of ingredients and additive, serum IgG", "excerpt": "(§3) The object of the study lied in analyzing comparative effect of main ingredients of the additive (the ADBH and vitamin D, separately) on the immune system of the body by variations of the main classes of immunoglobulins IgG, IgA, and IgM in blood serum. As stated previously, IgG is the main serum immunoglobuline of a healthy human amounting to 70-75% of the whole immunoglobulin fraction. It is especially active in the immune response. The serous IgA makes up to 15-20% of the whole immunoglobulin fraction. […] The IgM immunoglobulins are capable of neutralizing foreign particles, effectively activating complement, triggering defensive response mechanisms in the body.\n(§4) 29 participants, 37 to 60 years old, residing in the city of Penza and suffering from frequent catarrhal diseases were examined, and low levels of immunoglobulin reference values were uncovered. In view of the task set, immunopotentiation was administered to them. Depending on the method of immune correction, the participants were divided into three groups:1st group—nine persons took a tablet of the ADBH (150 mg) twice a day for 30 days, 2nd group—8 persons took a tablet of vitamin D3 (500 IE) twice a day for 30 days, and 3rd group—12 persons took a tablet of the proposed additive (150 mg of the ADBH and 500 IE of vitamin D3) by one tablet twice a day for 30 days."}, "[4]": {"tested_on": "IgA", "test": "Example 5 comparative effect of ingredients and additive, serum IgA", "excerpt": "as §3, §4"}, "[5]": {"tested_on": "IgM", "test": "Example 5 comparative effect of ingredients and additive, serum IgM", "excerpt": "as §3, §4"}, "[6]": {"tested_on": "ARD", "test": "Example 5 catamnesis, ARD during six months after the study", "settings": "during six months after the study was over", "experimental": "as §4\nIn other words, an unexpected result of the combined use of the ingredients dramatically differs from that where the ingredients are employed individually. […] The result can probably be explained by the presence of an enhancer of one ingredient of the proposed additive in the other which is on full display only when the both ingredients are used jointly."}, "[7]": {"settings": "After one-month treatment, twice a day (ADBH 150 mg, 25(OH)D 50 IE; or both in one tablet)"}, "[8]": {"settings": "Before, apparently healthy participants 38 to 62 years"}, "[9]": {"settings": "After, one tablet twice a day for 30 days (ADBH 150 mg; vitamin D3 500 IE; additive 150 mg ADBH + 500 IE D3)"}, "[10]": {"settings": "Before, participants 37 to 60 years with frequent catarrhal diseases"}}}
{"compound": "C=C1CC[C@H](O)C/C1=C/C=C1\\CCC[C@]2(C)[C@@H]([C@H](C)CCCC(C)(C)O)CC[C@@H]12", "note": "[25 (OH)D]", "values": [{"measurement": "IgM, M ± m", "setting": "[1]; [7]", "value": 1.82}, {"measurement": "IgM, M ± m", "setting": "[1]; [8]", "value": 1.91}, {"measurement": "IgG, M ± m", "setting": "[2]; [7]", "value": 12.39}, {"measurement": "IgG, M ± m", "setting": "[2]; [8]", "value": 12.21}]}
{"compound": "C=C1CC[C@H](O)C/C1=C/C=C1\\CCC[C@]2(C)[C@@H]([C@H](C)CCCC(C)C)CC[C@@H]12", "note": "[vitamin D3]", "values": [{"measurement": "IgG, M ± m", "setting": "[3]; [9]", "value": 12.27}, {"measurement": "IgG, M ± m", "setting": "[3]; [10]", "value": 12.41}, {"measurement": "IgA, M ± m", "setting": "[4]; [9]", "value": 1.93}, {"measurement": "IgA, M ± m", "setting": "[4]; [10]", "value": 1.81}, {"measurement": "IgM, M ± m", "setting": "[5]; [9]", "value": 1.82}, {"measurement": "IgM, M ± m", "setting": "[5]; [10]", "value": 1.91}, {"measurement": "falling ill with ARD in catamnesis", "setting": "[6]", "value": "had those diseased"}]}
